Target: T1, bradykinin 1 receptor (B1R) of the rat (Rattus norvegicus, UniProt P97583)
T1 construct: expressed in transfected cells
T1 sequence (P97583 1-337): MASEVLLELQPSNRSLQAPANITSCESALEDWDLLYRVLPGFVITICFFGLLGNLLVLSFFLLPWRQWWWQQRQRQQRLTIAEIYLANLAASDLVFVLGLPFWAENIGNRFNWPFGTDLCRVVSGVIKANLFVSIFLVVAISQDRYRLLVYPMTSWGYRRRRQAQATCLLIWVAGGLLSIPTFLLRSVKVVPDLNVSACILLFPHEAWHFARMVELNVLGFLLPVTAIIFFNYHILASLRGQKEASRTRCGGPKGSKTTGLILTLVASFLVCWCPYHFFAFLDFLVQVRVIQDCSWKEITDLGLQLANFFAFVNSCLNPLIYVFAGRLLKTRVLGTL
Assay: FLIPR Ca2+ assay, B1R antagonism, rat
Type: cell-based
Settings: 10 μM test substance; CHO K1 cells with rat B1R gene (rB1R cells); Des-Arg9-bradykinin at EC80; % inhibition compared with the maximum achievable inhibition
Protocol: The agonistic or antagonistic action of substances can be quantified on the bradykinin 1 receptor (B1R) of the human and rat species with ectopically expressing cell lines (CHO K1 cells) and with the aid of a Ca^2+-sensitive dyestuff (Fluo-4) in a fluorescent imaging plate reader (FLIPR). The figure in % activation is based on the Ca^2+ signal after addition of Lys-Des-Arg^9-bradykinin (0.5 nM) or Des-Arg^9-bradykinin (100 nM). Antagonists lead to a suppression of the Ca^2+ inflow after addition of the agonist. % inhibition compared with the maximum achievable inhibition is stated.
The agonistic or antagonistic action of substances can be determined on the bradykinin 1 receptor (B1R) of the human and rat species with the following assay. In accordance with this assay, the Ca^2+ inflow through the channel is quantified with the aid of a Ca^2+-sensitive dyestuff (type Fluo-4, Molecular Probes Europe BV, Leiden, Holland) in a fluorescent imaging plate reader (FLIPR, Molecular Devices, Sunnyvale, USA).
Chinese hamster ovary cells (CHO K1 cells) transfected stably with the human B1R gene (hB1R cells) or the B1R gene of the rat (rB1R cells) are used. For functional studies, these cells are plated out on black 96-well plates with a clear base (BD Biosciences, Heidelberg, Germany or Greiner, Frickenhausen, Germany) in a density of 20,000-35,000 cells/well. The cells are left overnight at 37° C. and 5% CO2 in culture medium (hB1R cells: Nutrient Mixture Ham's F12, Gibco Invitrogen GmbH, Karlsruhe, Germany or DMEM, Sigma-Aldrich, Taufkirchen, Germany; rB1R cells: D-MEM/F12, Gibco Invitrogen GmbH, Karlsruhe, Germany) with 10 vol. % FBS (foetal bovine serum, Gibco Invitrogen GmbH, Karlsruhe, Germany or PAN Biotech GmbH, Aidenbach, Germany).
On the following day, the cells are loaded for 60 min at 37° C. with 2.13 μM Fluo-4 (Molecular Probes Europe BV, Leiden, Holland) in HBSS buffer (Hank's buffered saline solution, Gibco Invitrogen GmbH, Karlsruhe, Germany) with 2.5 mM probenecid (Sigma-Aldrich, Taufkirchen, Germany) and 10 mM HEPES (Sigma-Aldrich, Taufkirchen, Germany). The plates are then washed 2× with HBSS buffer, and HBSS buffer which additionally contains 0.1% BSA (bovine serum albumin; Sigma-Aldrich, Taufkirchen, Germany), 5.6 mM glucose and 0.05% gelatine (Merck KGaA, Darmstadt, Germany) is added. After a further incubation of 20 minutes at room temperature, the plates are inserted into the FLIPR for the Ca^2+ measurement.
Alternatively, the plates are washed with buffer A (15 mM HEPES, 80 mM NaCl, 5 mM KCl, 1.2 mM CaCl2, 0.7 mM MgSO4, 2 g/l glucose, 2.5 mM probenecid), buffer A is added and the plates are loaded with 2.5 μM Fluo-4 and 0.025% Pluronic F127 (Sigma-Aldrich, Taufkirchen, Germany). Thereafter, the cells are washed 2× with buffer A and incubated for 30 minutes with buffer A, which additionally contains 0.05% BSA and 0.05% gelatine, at room temperature and thereafter inserted into the FLIPR for the Ca^2+ measurement.
The Ca^2+-dependent fluorescence is measured here before and after addition of substances (λex=488 nm, λem=540 nm). Quantification is by measurement of the highest fluorescence intensity (FC, fluorescence counts) over time.
The FLIPR protocol consists of 2 additions of substance. Test substances (10 μM) are first pipetted on to the cells and the Ca^2+ inflow is compared with the control (hB1R: Lys-Des-Arg^9-bradykinin >=50 nM; rB1R: Des-Arg^9-bradykinin 10 μM). This gives the figure in % activation based on the Ca^2+ signal after addition of Lys-Des-Arg^9-bradykinin (>=50 nM) or Des-Arg^9-bradykinin (10 μM).
After incubation for 10-20 minutes, Lys-Des-Arg^9-bradykinin (hB1R) or Des-Arg^9-bradykinin (rB1R) in the concentration of the EC80 is applied and the inflow of Ca^2+ is likewise determined. Antagonists lead to a suppression of the Ca^2+ inflow. % inhibition compared with the maximum achievable inhibition is calculated. […]

Compound	B1R antagonism, rat [10 μM] % inhibition
1-[4-pyridin-3-yl-4-(2-pyrrolidin-1-yl-ethoxy)-piperidin-1-yl]-2-[[4-[[2-(trifluoromethyl)-phenyl]sulfonyl]-3,4-dihydro-2H-[1,4]benzoxazin-3-yl]-methoxy]-ethanone [Example 110]	75%

Same assay, conditions: CHO-K1, 10 μM test substance; CHO K1 cells with rat B1R gene (rB1R cells); Des-Arg9-bradykinin at EC80; % inhibition compared with the maximum achievable inhibition; read-out: B1R antagonism, rat [10 μM] % inhibition

Compound	inhibition at 10 µM
COc1cc(C)c(S(=O)(=O)N2CCCCC2COCC(=O)N2CCC(OCCN3CCCC3)(c3ccc(F)cc3)CC2)c(C)c1 (stereo not shown) [Example 64, 1-[4-(4-fluorophenyl)-4-(2-pyrrolidin-1-yl-ethoxy)-piperidin-1-yl]-2-[[1-[(4-methoxy-2,6-dimethyl-phenyl)sulfonyl]-piperidin-2-yl]-methoxy]-ethanone]	98%
COc1cc(C)c(S(=O)(=O)N2CCCCC2COCC(=O)N2CCC(OCCN3CCCC3)(c3ccc(C(F)(F)F)cc3)CC2)c(C)c1 (stereo not shown) [Example 65, 2-[[1-[(4-methoxy-2,6-dimethyl-phenyl)sulfonyl]-piperidin-2-yl]-methoxy]-1-[4-(2-pyrrolidin-1-yl-ethoxy)-4-[4-(trifluoromethyl)-phenyl]-piperidin-1-yl]-ethanone]	96%
COc1cc(C)c(S(=O)(=O)N(CCOCC(=O)N2CCC(OCCN3CCCC3)(c3ccc(F)cc3)CC2)C2CC2)c(C)c1 [Example 66, N-cyclopropyl-N-[2-[2-[4-(4-fluorophenyl)-4-(2-pyrrolidin-1-yl-ethoxy)-piperidin-1-yl]-2-oxo-ethoxy]-ethyl]-4-methoxy-2,6-dimethyl-benzenesulfonic acid amide]	97%
COc1cc(C)c(S(=O)(=O)N(CCOCC(=O)N2CCC(OCCN3CCCC3)(c3ccc(C(F)(F)F)cc3)CC2)C2CC2)c(C)c1 [Example 67, N-cyclopropyl-4-methoxy-2,6-dimethyl-N-[2-[2-oxo-2-[4-(2-pyrrolidin-1-yl-ethoxy)-4-[4-(trifluoromethyl)-phenyl]-piperidin-1-yl]-ethoxy]-ethyl]-benzenesulfonic acid amide]	98%
Cc1cccc(Cl)c1S(=O)(=O)N1CCCCC1COCC(=O)N1CCC(OCCN2CCCC2)(c2ccc(F)cc2)CC1 (stereo not shown) [Example 68, 2-[[1-[(2-chloro-6-methyl-phenyl)sulfonyl]-piperidin-2-yl]-methoxy]-1-[4-(4-fluorophenyl)-4-(2-pyrrolidin-1-yl-ethoxy)-piperidin-1-yl]-ethanone]	93%
Cc1cccc(Cl)c1S(=O)(=O)N1CCCCC1COCC(=O)N1CCC(OCCN2CCCC2)(c2ccc(C(F)(F)F)cc2)CC1 (stereo not shown) [Example 69, 2-[[1-[(2-chloro-6-methyl-phenyl)sulfonyl]-piperidin-2-yl]-methoxy]-1-[4-(2-pyrrolidin-1-yl-ethoxy)-4-[4-(trifluoromethyl)-phenyl]-piperidin-1-yl]-ethanone]	97%

Continued, values first:

inhibition at 10 µM	Compound
98%	Cc1cccc(Cl)c1S(=O)(=O)N(CCOCC(=O)N1CCC(OCCN2CCCC2)(c2ccc(F)cc2)CC1)C1CC1 [Example 70, 2-chloro-N-cyclopropyl-N-[2-[2-[4-(4-fluorophenyl)-4-(2-pyrrolidin-1-yl-ethoxy)-piperidin-1-yl]-2-oxo-ethoxy]-ethyl]-6-methyl-benzenesulfonic acid amide]
95%	Cc1cccc(Cl)c1S(=O)(=O)N(CCOCC(=O)N1CCC(OCCN2CCCC2)(c2ccc(C(F)(F)F)cc2)CC1)C1CC1 [Example 71, 2-chloro-N-cyclopropyl-6-methyl-N-[2-[2-oxo-2-[4-(2-pyrrolidin-1-yl-ethoxy)-4-[4-(trifluoromethyl)-phenyl]-piperidin-1-yl]-ethoxy]-ethyl]-benzenesulfonic acid amide]
62%	O=C(CC1CCCCN1S(=O)(=O)c1cccc(C(F)(F)F)c1)N1CCC(OCCN2CCCC2)(c2ccc(F)cc2)CC1 (stereo not shown) [Example 72, 1-[4-(4-fluorophenyl)-4-(2-pyrrolidin-1-yl-ethoxy)-piperidin-1-yl]-2-[1-[[3-(trifluoromethyl)phenyl]sulfonyl]-piperidin-2-yl]-ethanone]

— patent US8318769B2, “Substituted sulfonamide compounds” (Gruenethal GmbH, priority 2008, dated 2012)
